The values below come from patent US20060154255A1, “Blood and tissue sample assessment of mitochondrial function and biochemistry as a tool for selection for feed efficiency and other production parameters” (priority 2002, published 2006).

In test [1] the test system is breast muscle mitochondria. Kind of test: H2O2 production (electron leak) in breast muscle mitochondria with respiratory chain inhibitors. Format: biochemical, broilers.
The next test relates to leg muscle mitochondria. Kind of test: H2O2 production (electron leak) in leg muscle mitochondria with respiratory chain inhibitors. Format: biochemical, broilers. The following applies: low FE leg muscle mitochondria; versus no inhibitor (NI); rotenone 10 μM; P<0.07.
The mark [2] stands for this setting: low FE breast muscle mitochondria, versus no inhibitor (NI), rotenone 10 μM, antimycin A 13 μM.
[3] abbreviates: breast muscle mitochondria, inhibition at Complex II or Q cycle of Complex III, malonate 7 μM, TTFA 8 μM, myxothiazol 13 μM.

With `C=C(C)[C@H]1Cc2c(ccc3c2O[C@@H]2COc4cc(OC)c(OC)cc4[C@@H]2C3=O)O1` [rotenone], the H2O2 production entry in test [1] (setting [2]) is given as “raised H2O2 production”; with leg muscle mitochondria it was “an elevation”.
For `O=C(CC(=O)C(F)(F)F)c1cccs1` [TTFA, 4,4,4-trifluoro-1-[2-thienyl]-1,3-butanedione], the H2O2 production entry in test [1] (setting [3]) is given as “No differences were observed”.
In the case of `CO/C(=C/C(N)=O)[C@H](C)[C@H](/C=C/c1csc(-c2csc([C@@H](C)/C=C/C=C/C(C)C)n2)n1)OC` [myxothiazol], in test [1] (setting [3]), the H2O2 production result is on record as “No differences were observed”.
On to antimycin A, for which the H2O2 production entry in test [1] (setting [2]) is “raised H2O2 production”.
Take `O=C(O)CC(=O)O` [malonate]: in test [1] (setting [3]), the H2O2 production entry was “No differences were observed”.
